Source: BindingDB's records for doi:10.1021/jm500569h (Georgetown University, 2014)

test: Antagonist activity at ER in human MCF7:WS8 cells assessed as inhibition of estradiol-induced cell growth by measuring DNA level after 7 days by fluorescence analysis

IC50 [nM]	Compound
3	CCOc1ccc2c(c1)CCCC(c1ccccc1)=C2c1ccc(OCCN(C)C)cc1
3	CNCCOc1ccc(C2=C(c3ccccc3)CCCc3cc(O)ccc32)cc1

test: Agonist activity at ER in human MCF7:WS8 cells assessed as increase in cell growth by measuring DNA level after 7 days by fluorescence analysis

EC50 [nM]	Compound
2.7	CCOc1ccc2c(c1)CCCC(c1ccccc1)=C2c1ccc(O)cc1
4	COc1ccc2c(c1)CCCC(c1ccccc1)=C2c1ccc(O)cc1
0.015	CCC(=C(c1ccc(O)cc1)c1ccc(O)cc1)c1ccccc1 [1,1-bis(4,4'-hydroxyphenyl)-2-phenylbut-1-ene]
0.3	COc1ccc(C2=C(c3ccccc3)CCCc3cc(O)ccc32)cc1
0.3	CCOc1ccc(C2=C(c3ccccc3)CCCc3cc(O)ccc32)cc1
15	CN(C)CCOc1ccc2c(c1)CCCC(c1ccccc1)=C2c1ccc(O)cc1
0.15	CCC(=C(c1ccc(O)cc1)c1ccc(O)cc1)c1ccc(O)cc1
20	CNCCOc1ccc2c(c1)CCCC(c1ccccc1)=C2c1ccc(O)cc1
